Data on 1 substance can be found in US20090022739A1, “MODULATING THE KV1.1 VOLTAGE-GATED POTASSIUM CHANNEL IN T-CELLS FOR REGULATING THE […] AND SECRETION OF TUMOR NECROSIS FACTOR ALPHA (tnf-ALPHA) AND TREATING HUMAN DISEASE OR INJURIES MEDIATED BY […] HIGH OR LOW LEVELS OF TNF-ALPHA” (priority 2005, published 2009).

In one assay the test system is normal human T-cells. In kind it is cell-based. On the procedure:
Human T-Cells: Normal human T-cells were purified from peripheral blood of healthy donors as described (Levite et al, 2000; Ganor et al, 2003; Levite t al, 1998), and the resulting cell population, containing ≧90% T-cells, was suspended in RPMI medium supplemented with 10% FCS, 1% L-Glutamine and antibiotics (Biological Industries, Bet Haemek, Israel) and maintained at 2×10^6 cells/ml (37° C./5% CO2).
Determination of TNF-α, IFN-γ, IL-10 and IL-4 by ELISA: Freshly-purified normal resting human T-cells (2×10^6/ml) were incubated in 24-well plates (Costar, Corning, N.Y.) and the various channel blockers were added. […] Cytokine levels were measured in supernatants after 24 hours for TNF-α and IFN-γ and after 72 hours for IL-10 and IL-4, by quantitative sandwich ELISA (R&D, Minneapolis, Minn.), according to the manufacturer's instructions. […]
These 12 blockers were selected on the basis of their reported ability to block most types of K^+, Na^+, Ca^2+ and Cl^− channels expressed in T-cells (Deutsch et al, 1986; Lewis et al, 1995; Lewis et al, 1988; Rader et al, 1996; Freedman et al, 1995; Koo et al, 1997; Lin et al, 1993; Ishida et al, 1993; Jensen et al, 1999; Kotturi et al, 2003; Phipps et al, 1996; Verheugen et al, 1997; Levite et al, 2000; Chandy et al, 1984). The levels of TNFα secreted into the culture media were tested 24 hours later by ELISA. For positive control, the cells were exposed to the potent phorbol ester PMA, know to activate T-cells in a non-specific manner. The results are shown in FIG. 1A and represent fold increase ±SD TNF-α secretion tested in 2-3 independent experiments. Each ion channel blocker was examined in at least two independent experiments, and at several concentrations covering its effective range (see Materials and Methods). The numbers in each figure next to each blocker represent the highest molar concentration used. Statistical analysis: *P=0.0001, 0.0005, 0.0011 and 0.0005 vs. untreated for MgTX, KTX, DTX-K and PMA, respectively (Student's t-test).

The next assay relates to NF-κB. The assay is described as follows: EMSA for nuclear NF-κB in normal human T-cells. In kind it is cell-based. To be noted: 100 nM DTX-K. How it is done:
EMSA for Nuclear NF-κB: Nuclear fractions from freshly-isolated normal human T-cells were collected using Nuclear Extract Kit (Active Motif, Carlsbad, Calif.), according to the manufacturer's instructions. NF-κB levels in nuclear fractions were measured using TransAM NF-κB Family Kit (Active Motif), according to the manufacturer's instructions.
In case of the TNF-α gene, the observed importance of NF-κB for the expression of the TNFα gene may depend on the cell type and the segment of the enhancer/promoter analyzed (Siebenlist et al, 1990). On these grounds, we investigated whether block of Kv1.1 channels in normal human T-cells (once again, in the complete absence of any other stimuli) can affect NF-κB. […]
Nuclear extracts were […] for several time periods, of which only 7 min is shown. The results, expressed as OD±SD, reflect the amount of NF-κB bound to nuclear NF-κB-binding sequences, as determined by commercially available EMSA. […]
On the technique in general: In EMSA bound probe runs differently from free probe, usually more slowly.

For assay [1], the target named is T1, Kv1.1 (Homo sapiens, UniProt Q09470). To be noted: Gutman et al, 2003; cited from earlier work.
Assay [2] deals with T1, Kv1.1. Particulars: cited from earlier work.

pKi: −log10 of the molar value. Like-named read-outs stand apart in the source and are kept apart here.

T1 sequence (Q09470 whole entry): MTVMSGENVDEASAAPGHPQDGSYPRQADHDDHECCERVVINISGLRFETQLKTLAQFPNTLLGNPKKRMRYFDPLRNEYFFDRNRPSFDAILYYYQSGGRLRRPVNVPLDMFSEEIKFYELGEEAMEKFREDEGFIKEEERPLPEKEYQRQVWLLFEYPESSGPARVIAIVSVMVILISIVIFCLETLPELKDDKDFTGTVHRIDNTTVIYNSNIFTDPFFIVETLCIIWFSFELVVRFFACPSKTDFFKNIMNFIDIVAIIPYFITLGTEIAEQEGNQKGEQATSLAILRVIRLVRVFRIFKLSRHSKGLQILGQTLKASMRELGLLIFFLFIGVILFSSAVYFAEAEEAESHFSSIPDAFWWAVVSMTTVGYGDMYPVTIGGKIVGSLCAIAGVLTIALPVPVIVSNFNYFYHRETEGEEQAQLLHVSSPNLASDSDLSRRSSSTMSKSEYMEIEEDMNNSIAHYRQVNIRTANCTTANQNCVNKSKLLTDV

Take “Dendrotoxin-K (AAKYCKLPLRIGPCKRKIPSFYYKWKAKQCLPFDYSGCGGNANRFKTIEECRRTCVG) [DTX-K]”: in the assay on normal human T-cells (100 nM DTX-K, 24 hours, FIG. 2B), the IFN-γ secretion entry was “not affecting”. Also, the TNFα secretion result in the assay on normal human T-cells (100 nM DTX-K, 24 hr, FIG. 2A) is “elevated”. Besides, in the assay with normal human T-cells (100 nM DTX-K, 72 hours, FIG. 2C), the IL-10 secretion entry is on record as “not affecting”. The IL-4 secretion entry with normal human T-cells (100 nM DTX-K, 72 hours, FIG. 2D) was “not affecting”. Further, the “TNFα secretion, time course” value with normal human T-cells (100 nM DTX-K, after 16 hours, individuals 4 and 5) is reported as “significantly elevated”. Besides, in the assay on normal human T-cells (100 nM DTX-K, after 72 hours, individuals 4 and 5), the “TNF-α secretion, time course” value is given as “remained significantly high”. The “additional elevation in TNFα levels beyond TCR-activation alone” value with normal human T-cells (DTX-K either during or after TCR-activation, data not shown) was “did not cause additional elevation”. The “fold increase in TNFα secretion” value is 33.4 fold increase with normal human T-cells (FIG. 1A, 24 hours, DTX-K 100 nM, other blockers at highest concentration used, no other stimulus); 8.7 fold in the assay with normal human T-cells (FIG. 1B, 24 hour exposure, 100 nM DTX-K); 39.5 fold in the assay on normal human T-cells (FIG. 1B, 24 hour exposure, 1 μM DTX-K). Besides, the “fold increase TNF-α secretion” value with normal human T-cells (individual 1 (FIG. 1C), 24 hours, 100 nM) is 22.3 fold; in the assay with normal human T-cells (individual 2 (FIG. 1D), 24 hours, 100 nM), 8.7 fold; with normal human T-cells (individual 3 (FIG. 1E), 24 hours, 100 nM), 49.0 fold; with normal human T-cells (individual 4 (FIG. 1F), 24 hours, 100 nM) it was 34.4 fold; in the assay with normal human T-cells (individual 5 (FIG. 1G), 24 hours, 100 nM), 2.4 fold; in the assay with normal human T-cells (individual 6 (FIG. 1H), 24 hours, 100 nM), 2.0 fold. Further, the “TNF-α secreted to the culture media” value in the assay on normal human T-cells (individual 4 (FIG. 1F), 24 hours, 100 nM, untreated 38 pg/ml) turned out to be 1308 pg/mL. The “level of NF-κB present in the nuclear extracts” value in the assay on NF-κB (7 minutes, FIG. 3B) is listed as “significantly augmented”. In addition, in the assay on NF-κB (several later time points, data not shown), the “elevation of nuclear NF-κB at later time points” value is recorded as “no longer detected”. The pKi – broadly, the Ki on a negative log10 scale, so that one unit is a factor of ten – with Kv1.1 [1] is 10.80. Besides, the “active concentration, Kv1.1 channel block” value with Kv1.1 [2] is on record as “picomolar concentrations”.
